Experimental data reported in patent US11655235B2, “Pyrrolidine and piperidine compounds” (YUHAN CORPORATION, priority 2019, dated 2023).

What was measured:
DPP4 = DPP4 (Homo sapiens, UniProt P27487); assay: DPP4 inhibition, fluorogenic substrate H-Gly-Pro-AMC; type: biochemical; parameters: purchased R&D Systems; conditions: recombinant human DPP4
Recombinant human FAP = biological target: T1, Recombinant human FAP (Homo sapiens, UniProt Q12884); assay: FAP FRET assay, FGF21-sequence FRET peptide substrate; type: biochemical; conditions: FRET peptide with human FGF21 sequence, 6 μM, 37° C.
T1 construct: purchased R&D systems
T1 sequence (Q12884 1-760): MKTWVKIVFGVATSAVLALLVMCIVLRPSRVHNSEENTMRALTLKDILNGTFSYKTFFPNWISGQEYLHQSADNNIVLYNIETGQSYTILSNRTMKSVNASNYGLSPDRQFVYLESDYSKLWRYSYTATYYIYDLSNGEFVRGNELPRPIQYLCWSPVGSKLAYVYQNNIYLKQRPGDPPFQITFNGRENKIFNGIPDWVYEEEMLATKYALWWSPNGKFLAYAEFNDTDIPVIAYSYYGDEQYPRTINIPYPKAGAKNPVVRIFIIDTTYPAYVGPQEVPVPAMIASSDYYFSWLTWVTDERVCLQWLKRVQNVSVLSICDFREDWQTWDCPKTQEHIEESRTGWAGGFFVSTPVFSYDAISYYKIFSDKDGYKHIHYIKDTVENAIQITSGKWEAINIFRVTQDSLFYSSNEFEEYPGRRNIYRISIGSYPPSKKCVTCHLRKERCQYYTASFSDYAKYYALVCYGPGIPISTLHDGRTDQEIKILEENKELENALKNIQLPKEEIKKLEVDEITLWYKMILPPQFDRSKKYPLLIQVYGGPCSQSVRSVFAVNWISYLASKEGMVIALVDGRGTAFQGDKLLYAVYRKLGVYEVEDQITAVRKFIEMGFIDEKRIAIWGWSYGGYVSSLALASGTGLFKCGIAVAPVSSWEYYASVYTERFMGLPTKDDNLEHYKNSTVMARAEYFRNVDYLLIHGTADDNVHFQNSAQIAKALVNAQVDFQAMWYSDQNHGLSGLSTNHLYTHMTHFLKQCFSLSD
Experimental: The compounds according to the present technology were evaluated in terms of the inhibitory effect on the activity of dipeptidyl peptidases including FAP by using a substrate producing fluorescent substances upon enzymatic decomposition. The test was conducted at 25° C. to get a final reaction volume of 100 μL in a 96 black well plate. […] Briefly, the test compounds were dissolved in dimethyl sulfoxide (DMSO) at a concentration of 20 mM and then subjected to serial dilution, thereby creating an 8 point curve. As for the control group, a 6 point curve created by serial dilution of Talabostat in the same buffer solution was used. Fluorescence intensity was measured using a microplate reader (Flexstation3, Molecular Devices) under the wavelength condition exciting at 380 nm and reading the emission at 460 nm. The inhibitory effect of the test compounds was measured as a decrease (%) in the signal rate as compared to the control group without any inhibitor. Data was fixed to a logistic model with four variables and IC50 value was calculated using GraphPad Prism program. For the FAP FRET assay, recombinant human FAP (R&D systems) was diluted with 50 mM HEPES (pH 7.2) buffer comprising 150 mM of sodium chloride, 0.1 mg/ml of bovine serum albumin (BSA) and 1 mM EDTA to be 10 ng per final reaction. The test compounds were subjected to serial dilution in a buffer under the condition containing up to 0.1% of DMSO. FRET peptides containing human FGF21 sequence ([…]) conjugated with HyLite Fluor 488 and dark quencher QXL 520 (Anaspec) was used as a substrate. By dissolving in DMSO and then diluting in the same buffer, the substrate was added to be 6 μM per final reaction. All reactions of FRET assay was conducted at 37° C.

Sequence of DPP4 (P27487 whole entry): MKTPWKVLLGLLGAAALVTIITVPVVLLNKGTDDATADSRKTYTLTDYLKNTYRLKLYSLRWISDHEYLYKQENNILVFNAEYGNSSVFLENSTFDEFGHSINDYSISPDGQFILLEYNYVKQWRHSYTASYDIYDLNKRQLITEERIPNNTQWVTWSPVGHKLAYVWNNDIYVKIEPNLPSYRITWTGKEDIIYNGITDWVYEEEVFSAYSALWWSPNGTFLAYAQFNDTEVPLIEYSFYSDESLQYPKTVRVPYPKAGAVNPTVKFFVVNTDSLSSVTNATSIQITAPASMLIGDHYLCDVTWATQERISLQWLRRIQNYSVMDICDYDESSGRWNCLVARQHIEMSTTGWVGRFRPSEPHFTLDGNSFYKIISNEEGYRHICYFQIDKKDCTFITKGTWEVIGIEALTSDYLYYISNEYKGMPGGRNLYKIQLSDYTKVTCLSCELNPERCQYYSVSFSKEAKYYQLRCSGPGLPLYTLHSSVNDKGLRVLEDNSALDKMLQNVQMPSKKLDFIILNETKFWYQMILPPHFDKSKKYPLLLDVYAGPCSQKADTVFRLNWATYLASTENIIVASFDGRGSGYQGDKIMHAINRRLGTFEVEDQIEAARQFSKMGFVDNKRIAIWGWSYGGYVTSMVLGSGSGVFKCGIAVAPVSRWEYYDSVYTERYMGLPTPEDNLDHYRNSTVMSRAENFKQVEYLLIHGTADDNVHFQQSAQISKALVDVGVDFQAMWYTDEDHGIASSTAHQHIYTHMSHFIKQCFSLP

Row | SMILES | IC50 (DPP4) [nM] | IC50 (Recombinant human FAP) [nM]
1 | CN(c1cc(F)cc2ncccc12)[C@H]1CCN(CC(=O)N2C[C@@H](F)C[C@H]2C#N)C1 [Example 157, (2S,4S)-4-fluoro-1-(2-((S)-3-((7-fluoroquinolin-5-yl)(methyl)amino)pyrrolidin-1-yl)acetyl)pyrrolidine-2-carbonitrile] | 2160 | 20.2
2 | COc1ccc2ncccc2c1N[C@@H]1CCN(CC(=O)N2C[C@@H](F)C[C@H]2C#N)C1 [Example 176, (2S,4S)-4-fluoro-1-[2-[(3R)-3-[(6-methoxy-5-quinolyl)amino]pyrrolidin-1-yl]acetyl]pyrrolidine-2-carbonitrile] | 1510 | 22.2
3 | Cc1ccc2nccc(N[C@@H]3CCN(CC(=O)N4C[C@@H](F)C[C@H]4C#N)C3)c2c1 [Example 187, (2S,4S)-4-fluoro-1-[2-[(3R)-3-[(6-methyl-4-quinolyl)amino]pyrrolidin-1-yl]acetyl]pyrrolidine-2-carbonitrile] | 17600 | 23.9
4 | COc1ccc2nccc(N[C@@H]3CCN(CC(=O)N4C[C@@H](F)C[C@H]4C#N)C3)c2c1 [Example 188, (2S,4S)-4-fluoro-1-[2-[(3R)-3-[(6-methoxy-4-quinolyl)amino]pyrrolidin-1-yl]acetyl]pyrrolidine-2-carbonitrile] | 15200 | 21.5
5 | N#C[C@@H]1C[C@H](F)CN1C(=O)CN1CC[C@@H](Nc2ccnc3ccc(F)cc23)C1 [Example 191, (2S,4S)-4-fluoro-1-[2-[(3R)-3-[(6-fluoro-4-quinolyl)amino]pyrrolidin-1-yl]acetyl]pyrrolidine-2-carbonitrile] | 3220 | 19.4
6 | N#C[C@@H]1C[C@H](F)CN1C(=O)CN1CC[C@@H](Nc2ccnc3ccc(Cl)cc23)C1 [Example 192, (2S,4S)-4-fluoro-1-[2-[(3R)-3-[(6-chloro-4-quinolyl)amino]pyrrolidin-1-yl]acetyl]pyrrolidine-2-carbonitrile] | 5560 | 15.6
7 | COc1ccc2c(N[C@@H]3CCN(CC(=O)N4C[C@@H](F)C[C@H]4C#N)C3)ccnc2c1 [Example 193, (2S,4S)-4-fluoro-1-[2-[(3R)-3-[(7-methoxy-4-quinolyl)amino]pyrrolidin-1-yl]acetyl]pyrrolidine-2-carbonitrile] | 9090 | 24.4
8 | N#C[C@@H]1C[C@H](F)CN1C(=O)CN1CC[C@@H](Nc2ccnc3c(F)cccc23)C1 [Example 194, (2S,4S)-4-fluoro-1-[2-[(3R)-3-[(8-fluoro-4-quinolyl)amino]pyrrolidin-1-yl]acetyl]pyrrolidine-2-carbonitrile] | 19600 | 10.9
9 | COc1cccc2c(N[C@@H]3CCN(CC(=O)N4C[C@@H](F)C[C@H]4C#N)C3)ccnc12 [Example 195, (2S,4S)-4-fluoro-1-[2-[(3R)-3-[(8-methoxy-4-quinolyl)amino]pyrrolidin-1-yl]acetyl]pyrrolidine-2-carbonitrile] | 14100 | 21.7
10 | N#C[C@@H]1C[C@H](F)CN1C(=O)CN1CC[C@@H](Nc2ccnc3c(C(F)(F)F)cccc23)C1 [Example 196, (2S,4S)-4-fluoro-1-[2-[(3R)-3-[[8-(trifluoromethyl)-4-quinolyl]amino]pyrrolidin-1-yl]acetyl]pyrrolidine-2-carbonitrile] | 3840 | 7.4
11 | N#C[C@@H]1CCCN1C(=O)CN1CC[C@@H](Nc2ccc3nc(C(F)(F)F)ccc3c2)C1 [Example 217, (2S)-1-[2-[(3R)-3-[[2-(trifluoromethyl)-6-quinolyl]amino]pyrrolidin-1-yl]acetyl]pyrrolidine-2-carbonitrile] | 29000 | 8.8
12 | Cc1cnc2ccc(N[C@@H]3CCN(CC(=O)N4CCC[C@H]4C#N)C3)cc2c1 [Example 218, (2S)-1-[2-[(3R)-3-[(3-methyl-6-quinolyl)amino]pyrrolidin-1-yl]acetyl]pyrrolidine-2-carbonitrile] | 17300 | 26.6
13 | COc1ccnc2ccc(N[C@@H]3CCN(CC(=O)N4CCC[C@H]4C#N)C3)cc12 [Example 219, (2S)-1-[2-[(3R)-3-[(4-methoxy-6-quinolyl)amino]pyrrolidin-1-yl]acetyl]pyrrolidine-2-carbonitrile] | 13000 | 16.8
14 | Cc1cc(N[C@@H]2CCN(CC(=O)N3CCC[C@H]3C#N)C2)cc2cccnc12 [Example 220, (2S)-1-[2-[(3R)-3-[(8-methyl-6-quinolyl)amino]pyrrolidin-1-yl]acetyl]pyrrolidine-2-carbonitrile] | 13200 | 5.7
15 | N#C[C@@H]1CCCN1C(=O)CN1CC[C@@H](Nc2cc(F)c3ncccc3c2)C1 [Example 221, (2S)-1-[2-[(3R)-3-[(8-fluoro-6-quinolyl)amino]pyrrolidin-1-yl]acetyl]pyrrolidine-2-carbonitrile] | 11100 | 7.5

Next, values leading:

Row | IC50 (DPP4) [nM] | IC50 (Recombinant human FAP) [nM] | SMILES
16 | 11800 | 2.1 | N#C[C@@H]1CCCN1C(=O)CN1CC[C@@H](Nc2cc(Cl)c3ncccc3c2)C1 [Example 222, (2S)-1-[2-[(3R)-3-[(8-chloro-6-quinolyl)amino]pyrrolidin-1-yl]acetyl]pyrrolidine-2-carbonitrile]
17 | 92500 | 13.1 | Cc1ccc2nccc(N[C@@H]3CCN(CC(=O)N4CCC[C@H]4C#N)C3)c2c1 [Example 223, (2S)-1-[2-[(3R)-3-[(6-methyl-4-quinolyl)amino]pyrrolidin-1-yl]acetyl]pyrrolidine-2-carbonitrile]
18 | 54200 | 10 | COc1ccc2nccc(N[C@@H]3CCN(CC(=O)N4CCC[C@H]4C#N)C3)c2c1 [Example 224, (2S)-1-[2-[(3R)-3-[(6-methoxy-4-quinolyl)amino]pyrrolidin-1-yl]acetyl]pyrrolidine-2-carbonitrile]
19 | 34200 | 7.2 | N#C[C@@H]1CCCN1C(=O)CN1CC[C@@H](Nc2ccnc3ccc(F)cc23)C1 [Example 225, (2S)-1-[2-[(3R)-3-[(6-fluoro-4-quinolyl)amino]pyrrolidin-1-yl]acetyl]pyrrolidine-2-carbonitrile]
20 | 37900 | 4.8 | N#C[C@@H]1CCCN1C(=O)CN1CC[C@@H](Nc2ccnc3ccc(Cl)cc23)C1 [Example 226, (2S)-1-[2-[(3R)-3-[(6-chloro-4-quinolyl)amino]pyrrolidin-1-yl]acetyl]pyrrolidine-2-carbonitrile]
21 | 31700 | 7.2 | N#C[C@@H]1CCCN1C(=O)CN1CC[C@@H](Nc2ccnc3c(F)cccc23)C1 [Example 227, (2S)-1-[2-[(3R)-3-[(8-fluoro-4-quinolyl)amino]pyrrolidin-1-yl]acetyl]pyrrolidine-2-carbonitrile]
22 | 2800 | 16.3 | N#C[C@@H]1C[C@H](F)CN1C(=O)CN1CC[C@H](Nc2cnc3ncccc3c2)C1 [Example 272, (2S,4S)-4-fluoro-1-[2-[(3S)-3-(1,8-naphthyridin-3-ylamino)pyrrolidin-1-yl]acetyl]pyrrolidine-2-carbonitrile]
23 | 530 | 19 | N#C[C@@H]1C[C@H](F)CN1C(=O)CN1CC[C@H](Nc2cnc3nc(Cl)ccc3c2)C1 [Example 273, (2S,4S)-4-fluoro-1-[2-[(3S)-3-[(7-chloro-1,8-naphthyridin-3-yl)amino]pyrrolidin-1-yl]acetyl]pyrrolidine-2-carbonitrile]
24 | – | 32.4 | N#C[C@@H]1CCCN1C(=O)CN1CCC(Nc2cccc3ncc(C(F)(F)F)cc23)CC1 [Example 387, (2S)-1-[2-[4-[[3-(trifluoromethyl)-5-quinolyl]amino]-1-piperidyl]acetyl]pyrrolidine-2-carbonitrile]
